Measurements published in ChEMBL document CHEMBL5518172, “Discovery of hydroxamate as a promising scaffold dually inhibiting metallo- and serine-β-lactamases” (Eur J Med Chem, 2024).
The source made the active and inactive calls. The rule behind the calls is not given here.

Columns and labels:
[1] = Inhibition of recombinant metallo-beta-lactamase IMP-1 (unknown origin) expressed in Escherichia coli BL21 (DE3) cells using meropenem as substrate by spectrometric analysis; set-up: species or system Bacteria
Bacteria [2] = assay: Inhibition of recombinant metallo-beta-lactamase IMP-1 (unknown origin) expressed in Escherichia coli BL21 (DE3) cells using cefazolin as substrate assessed as reduction in residual activity; details: dose 0.075-20 µM
Escherichia coli [3] = assay: Synergistic antibacterial activity against Escherichia coli clinical isolate 10 assessed as decrease in bacterial colony at 128 microg/ml incubated for 12 hrs in presence of meropenem by imaging analysis; format: functional, organism-based; details: dose 128.0 µg/ml
Escherichia coli [4] = assay: Synergistic antibacterial activity against Escherichia coli harboring NDM-1 infected in Kunming mouse model assessed as reduction in bacterial load in spleen at 20 mg/kg, ip co-administered with 10 mg/kg of meropenem; format: functional, organism-based
Escherichia coli [5] = assay: Antibacterial activity against Escherichia coli harboring NDM-1 infected in Kunming mouse model assessed as reduction in bacterial load in liver at 20 mg/kg, ip; format: functional, organism-based
[6] = biological target: Metallo-beta-lactamase type 2 (Bacteria, UniProt C7C422); assay: Non-competitive inhibition of recombinant NDM-1 (unknown origin) expressed in Escherichia coli BL21 (DE3) cells using meropenem as substrate assessed as inhibition constant by Lineweaver-Burk plot analysis
Chain of Metallo-beta-lactamase type 2 (C7C422 whole entry): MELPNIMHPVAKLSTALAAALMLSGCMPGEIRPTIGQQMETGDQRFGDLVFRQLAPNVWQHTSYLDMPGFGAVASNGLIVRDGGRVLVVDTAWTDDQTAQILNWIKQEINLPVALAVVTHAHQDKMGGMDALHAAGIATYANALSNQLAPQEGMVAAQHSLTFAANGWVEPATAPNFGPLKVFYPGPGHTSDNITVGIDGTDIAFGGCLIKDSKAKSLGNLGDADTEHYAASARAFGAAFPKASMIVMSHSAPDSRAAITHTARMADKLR

Escherichia coli [7] = assay: Synergistic antibacterial activity against Escherichia coli harboring serine beta-lactamase OXA-48 infected in Kunming mouse model assessed as reduction in bacterial load in spleen at 20 mg/kg, ip co-administered with 1 mg/kg of meropenem; format: functional, organism-based
Klebsiella pneumoniae = assay: Synergistic antibacterial activity against KPC and NDM-1 producing Klebsiella pneumoniae assessed as meropenem MIC at 64 microg/ml incubated for 16 hrs by CLSI protocol based broth microdilution method (reference value: 256 microg/ml); format: functional; details: dose 64 µg/ml
Bacteria [8] = assay: Inhibition of recombinant serine beta lactamase OXA-48 (unknown origin) expressed in Escherichia coli BL21 (DE3) cells assessed as reduction in residual activity at 0.3 to 5 uM; details: dose 0.3-5 µM, time 120.0 min, TDE = time-dependent effect
Bacteria [9] = assay: Irreversible inhibition of recombinant serine beta lactamase OXA-48 (unknown origin) expressed in Escherichia coli BL21 (DE3) cells using cefazolin as substrate assessed as reduction in residual activity at 5 uM preincubated for 6 hrs followed by dialysis and measured after 24 hrs
Bacteria [10] = assay: Inhibition of recombinant serine beta lactamase KPC-2 (unknown origin) expressed in Escherichia coli BL21 (DE3) cells using cefazolin as substrate assessed as reduction in residual activity; details: dose 0.075-20 µM
Escherichia coli [11] = assay: Antibacterial activity against Escherichia coli BL21 (DE3) harboring serine beta lactamase OXA-48 assessed as inhibition of bacterial growth upto 512 microg/ml by microdilution checkerboard assay; format: functional, organism-based; details: dose <= 512.0 µg/ml
Bacteria [12] = assay: Inhibition of recombinant serine beta lactamase KPC-2 (unknown origin) expressed in Escherichia coli BL21 (DE3) cells assessed as reduction in residual activity at 0.25 to 5 uM; details: dose 0.25-5 µM, time 360.0 min, TDE = time-dependent effect
[13] = biological target: Metallo-beta-lactamase type 2 (Bacteria) (UniProt C7C422); assay: Destabilization of recombinant NDM-1 (unknown origin) expressed in Escherichia coli BL21 (DE3) cells assessed as thermal stabilization by measuring melting temperature at 50 uM incubated under 25 to 80 degreeC by SYPRO orange dye based thermal shift assay (reference value: 52.6 degreeC)
Chain of Metallo-beta-lactamase type 2 (Bacteria) (C7C422 whole entry): as above

## O=C(CCCc1ccccc1)NOC(=O)OCc1ccccc1
[1]
  IC50: 1.32 µM
Bacteria [2]
  inhibition: Dose-Dependent Effect
Escherichia coli [3]
  Activity: Active
Escherichia coli [4]
  Activity: Active
Escherichia coli [5]
  Activity: inactive
[6]
  Ki: 2.5 µM
Escherichia coli [7]
  Activity: Active
Klebsiella pneumoniae
  MIC: 256 µg/mL
Bacteria [8]
  inhibition: Tde
Bacteria [9]
  inhibition: Active
Bacteria [10]
  inhibition: Dose-Dependent Effect
Escherichia coli [11]
  Activity: inactive
Bacteria [12]
  inhibition: Tde
[13]
  Tm: 49.8 °C
